Data: ChEMBL document CHEMBL1153245, “A profile of the in vitro anti-tumor activity of imidazolium-based ionic liquids” (2010)

Columns and labels:
Assay type in all cases: functional
[1] = tested on: EKVX; test: Anticancer activity against human EKVX cells assessed cell growth at 10 uM after 48 hrs by sulforhodamine B assay relative to control
[2] = tested on: OVCAR-5; test: Anticancer activity against human OVCAR5 cells after 48 hrs by sulforhodamine B assay; details: Homo sapiens, OVCAR-5, 48 h
[3] = tested on: SK-MEL-2; test: Anticancer activity against human SK-MEL-2 cells after 48 hrs by sulforhodamine B assay; details: SK-MEL-2, 48 h
[4] = tested on: K562; test: Anticancer activity against human K562 cells after 48 hrs by sulforhodamine B assay; details: Homo sapiens, K562, 48 h
[5] = tested on: UACC-257; test: Anticancer activity against human UACC257 cells after 48 hrs by sulforhodamine B assay; details: Homo sapiens, UACC-257, 48 h
[6] = Anticancer activity against human […] cells after 48 hrs by sulforhodamine B assay; details: Homo sapiens, RPMI8266, 48 h
[7] = tested on: TK-10; test: Anticancer activity against human TK10 cells after 48 hrs by sulforhodamine B assay; details: Homo sapiens, TK-10, 48 h
[8] = tested on: M14; test: Anticancer activity against human M14 cells after 48 hrs by sulforhodamine B assay; details: Homo sapiens, M14, 48 h
[9] = tested on: MDA-MB-468; test: Anticancer activity against human MDA-MB-468 cells after 48 hrs by sulforhodamine B assay; details: Homo sapiens, MDA-MB-468, 48 h
[10] = tested on: MDA-MB-435; test: Anticancer activity against human MDA-MB-435 cells after 48 hrs by sulforhodamine B assay; details: Homo sapiens, MDA-MB-435, 48 h
[11] = Anticancer activity against human Hs 578T cells after 48 hrs by sulforhodamine B assay; details: Homo sapiens, Hs-578T, 48 h
[12] = tested on: SK-OV-3; test: Anticancer activity against human SKOV3 cells after 48 hrs by sulforhodamine B assay; details: Homo sapiens, SK-OV-3, 48 h
[13] = tested on: SF-268; test: Anticancer activity against human SF268 cells after 48 hrs by sulforhodamine B assay; details: Homo sapiens, SF-268, 48 h
[14] = tested on: IGROV-1; test: Anticancer activity against human IGROV1 cells after 48 hrs by sulforhodamine B assay; details: IGROV-1, 48 h
[15] = tested on: T47D; test: Anticancer activity against human T47D cells after 48 hrs by sulforhodamine B assay; details: Homo sapiens, T47D, 48 h
[16] = tested on: PC-3; test: Anticancer activity against human PC3 cells after 48 hrs by sulforhodamine B assay; details: Homo sapiens, PC-3, 48 h
[17] = tested on: SK-MEL-28; test: Anticancer activity against human SK-MEL-28 cells after 48 hrs by sulforhodamine B assay; details: Homo sapiens, SK-MEL-28, 48 h
[18] = tested on: HCC 2998; test: Anticancer activity against human HCC2998 cells after 48 hrs by sulforhodamine B assay; details: Homo sapiens, HCC 2998, 48 h
[19] = tested on: NCI-H522; test: Anticancer activity against human NCI-H522 cells after 48 hrs by sulforhodamine B assay; details: Homo sapiens, NCI-H522, 48 h
[20] = tested on: MOLT-4; test: Anticancer activity against human MOLT4 cells after 48 hrs by sulforhodamine B assay; details: Homo sapiens, MOLT-4, 48 h
[21] = tested on: COLO 205; test: Anticancer activity against human COLO205 cells after 48 hrs by sulforhodamine B assay; details: Homo sapiens, COLO 205, 48 h
[22] = tested on: A549; test: Anticancer activity against human A549 cells after 48 hrs by sulforhodamine B assay; details: Homo sapiens, A549, 48 h
[23] = tested on: SK-MEL-5; test: Anticancer activity against human SK-MEL-5 cells after 48 hrs by sulforhodamine B assay; details: Homo sapiens, SK-MEL-5, 48 h
[24] = tested on: Malme-3M; test: Anticancer activity against human MALME-3M cells after 48 hrs by sulforhodamine B assay; details: Homo sapiens, Malme-3M, 48 h
[25] = tested on: RXF 393; test: Anticancer activity against human RXF393 cells after 48 hrs by sulforhodamine B assay; details: Homo sapiens, RXF 393, 48 h
[26] = tested on: NCI-H226; test: Anticancer activity against human NCI-H226 cells after 48 hrs by sulforhodamine B assay; details: Homo sapiens, NCI-H226, 48 h
[27] = tested on: HCT-15; test: Anticancer activity against human HCT15 cells after 48 hrs by sulforhodamine B assay; details: Homo sapiens, HCT-15, 48 h
[28] = tested on: HOP-62; test: Anticancer activity against human HOP62 cells after 48 hrs by sulforhodamine B assay; details: Homo sapiens, HOP-62, 48 h
[29] = tested on: SNB-19; test: Anticancer activity against human SNB19 cells after 48 hrs by sulforhodamine B assay; details: Homo sapiens, SNB-19, 48 h
[30] = tested on: HCT-116; test: Anticancer activity against human HCT116 cells after 48 hrs by sulforhodamine B assay; details: Homo sapiens, HCT-116, 48 h
[31] = tested on: A498; test: Anticancer activity against human A498 cells after 48 hrs by sulforhodamine B assay; details: Homo sapiens, A498, 48 h
[32] = tested on: SR; test: Anticancer activity against human SR cells after 48 hrs by sulforhodamine B assay; details: Homo sapiens, SR, 48 h
[33] = tested on: OVCAR-4; test: Anticancer activity against human OVCAR4 cells after 48 hrs by sulforhodamine B assay; details: Homo sapiens, OVCAR-4, 48 h
[34] = tested on: SF-539; test: Anticancer activity against human SF539 cells after 48 hrs by sulforhodamine B assay; details: Homo sapiens, SF-539, 48 h
[35] = read-out: LC50 (the source's name)

Cn1cc[n+](Cc2ccccc2)c1.F[P-](F)(F)(F)(F)F
Activity [1]: 102.53%

COCC[n+]1ccn(C)c1.O=S(=O)([N-]S(=O)(=O)C(F)(F)F)C(F)(F)F
Activity [1]: 108.75%

CCCCCCCCCCCCCCCCCC[n+]1ccn(C)c1.O=S(=O)([N-]S(=O)(=O)C(F)(F)F)C(F)(F)F
GI50 [2]: 0.909 µM
CC50 [2, 35]: 9.14 µM
GI50 [3]: 2.09 µM
LC50 [3]: > 100 µM
GI50 [4]: 0.312 µM
CC50 [4, 35]: > 100 µM
GI50 [5]: 1.53 µM
LC50 [5]: > 100 µM
GI50 [6]: 0.062 µM
CC50 [6, 35]: > 100 µM
GI50 [7]: 0.407 µM
LC50 [7]: 4.43 µM
GI50 [8]: 0.537 µM
LC50 (50% lethal concentration) [8]: 6.84 µM
GI50 [9]: 0.196 µM
LC50 [9]: > 100 µM
GI50 [10]: 1.08 µM
CC50 [10, 35]: 6.69 µM
GI50 [11]: 0.546 µM
CC50 [11, 35]: 8.48 µM
GI50 [12]: 1.16 µM
CC50 [12, 35]: 5.82 µM
GI50 [13]: 1.14 µM
CC50 [13, 35]: 6.29 µM
GI50 [14]: 0.516 µM
CC50 [14, 35]: > 100 µM
GI50 [15]: 0.6 µM
CC50 [15, 35]: > 100 µM
GI50 [16]: 0.311 µM
CC50 [16, 35]: 5.26 µM
GI50 [17]: 1.14 µM
LC50 [17]: 6.51 µM
GI50 [18]: 0.494 µM
CC50 [18, 35]: 9.07 µM
GI50 [19]: 1.02 µM
LC50 [19]: > 100 µM
GI50 [20]: 0.65 µM
LC50 [20]: > 100 µM
GI50 [21]: 0.35 µM
CC50 [21, 35]: 4.02 µM
GI50 [22]: 1.18 µM
LC50 (concentration killing 50% of cells) [22]: > 100 µM
GI50 [23]: 0.532 µM
CC50 [23, 35]: 4.21 µM
GI50 [24]: 0.454 µM
LC50 (concentration killing 50% of cells) [24]: 5.08 µM
GI50 [25]: 1.03 µM
LC50 [25]: 6.55 µM
GI50 [26]: 1.26 µM
LC50 [26]: 8 µM
GI50 [27]: 1.07 µM
CC50 [27, 35]: 5.94 µM
GI50 [28]: 1.11 µM
CC50 [28, 35]: 9.79 µM
GI50 [29]: 1.18 µM
CC50 [29, 35]: 4.95 µM
GI50 [30]: 0.651 µM
CC50 [30, 35]: > 100 µM
GI50 [31]: 1.07 µM
CC50 [31, 35]: 6.22 µM
GI50 [32]: 1.24 µM
CC50 [32, 35]: > 100 µM
GI50 [33]: 0.351 µM
CC50 [33, 35]: > 100 µM
GI50 [34]: 0.937 µM
LC50 (lethal concentration, 50% cell kill) [34]: 5.28 µM
